According to US10597388B2, “Pyridazinone herbicides” (FMC CORPORATION, priority 2014, dated 2020):

Tests used:
Type in all cases: in vivo
[1] = test system: ragweed (common ragweed, Ambrosia elatior); experiment: Test C greenhouse herbicide test, pre- and postemergence
Procedure, shortened: (§1)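 Greenhouse pots; pre-em on seeded loam:sand blend, post-em on 2–18 cm plants (1–4 leaf) in sphagnum peat/vermiculite medium. Formulation: non-phytotoxic solvent + surfactant. Read-out: visual % control (0–100) vs controls at 13–15 d.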

[2] = test system: oilseed rape (Brassica napus); experiment: as above
Procedure, shortened: as §1

[3] = test system: johnsongrass (Sorghum halepense); experiment: as above
Procedure, shortened: as §1

[4] = test system: foxtail, giant (giant foxtail, Setaria faberii); experiment: Test A greenhouse herbicide test, pre- and postemergence
Procedure, shortened: (§2)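 Visual injury ratings, 0 (no effect) to 100 (complete control), versus untreated plants after roughly 10 d in a greenhouse. Compounds, formulated in a surfactant-containing non-phytotoxic solvent, were sprayed on loam–sand soil after sowing (pre) or on one- to two-leaf plants 2–10 cm tall (post).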

[5] = test system: ragweed (common ragweed, Ambrosia elatior); experiment: as above
Procedure, shortened: as §2

[6] = test system: ryegrass, Italian (Italian ryegrass, Lolium multiflorum); experiment: as above
Procedure, shortened: as §2

kochia (Kochia scoparia) = experiment: as above
Procedure, shortened: as §2

[7] = test system: wheat (Triticum aestivum); experiment: as above; settings: Postemergence; for Wheat plant response rating: 0 to 100 scale, 0 is no effect, 100 is complete control
Procedure, shortened: as §2

[8] = test system: pigweed (Amaranthus retroflexus); experiment: as above
Procedure, shortened: as §2

corn (Zea mays) = experiment: as above; settings: Postemergence; for Corn plant response rating: 0 to 100 scale, 0 is no effect, 100 is complete control
Procedure, shortened: as §2

[9] = Preemergence, 31 g ai/ha, scale 0 to 100, 0 is no effect, 100 is complete control
[10] = Preemergence, 62 g ai/ha, scale 0 to 100, 0 is no effect, 100 is complete control
[11] = Preemergence, 125 g ai/ha, scale 0 to 100, 0 is no effect, 100 is complete control
[12] = Preemergence, 250 g ai/ha, scale 0 to 100, 0 no effect, 100 complete control
[13] = Postemergence, 125 g ai/ha, 0 to 100 scale where 0 is no effect and 100 is complete control
[14] = Postemergence, 500 g ai/ha, visual rating after approx. 10 d, 0 to 100 scale (0 no effect, 100 complete control)
[15] = Preemergence, 125 g ai/ha, 0 to 100 scale where 0 is no effect and 100 is complete control
[16] = Preemergence, 500 g ai/ha, 0 to 100 scale where 0 is no effect and 100 is complete control
[17] = 125 g ai/ha, 0 to 100 scale where 0 is no effect and 100 is complete control
[18] = 500 g ai/ha, visual rating after approx. 10 d, 0 to 100 scale (0 no effect, 100 complete control)
[19] = Postemergence, 31 g ai/ha, scale 0 to 100 (0 no effect, 100 complete control)
[20] = Postemergence, 62 g ai/ha, 0 to 100 scale (0 no effect, 100 complete control)
[21] = Postemergence, 125 g ai/ha, scale 0 to 100, 0 is no effect, 100 is complete control
[22] = Postemergence, 250 g ai/ha, scale 0 to 100, 0 no effect, 100 complete control, 13 to 15 d
[23] = Postemergence, 31 g ai/ha, 0 to 100 scale (0 no effect, 100 complete control)
[24] = postemergence, 62 g ai/ha, scale 0 to 100, 0 no effect, 100 complete control
[25] = Postemergence, 500 g ai/ha, 0 to 100 scale, 0 is no effect, 100 is complete control
[26] = Postemergence, 8 g ai/ha, scale 0 to 100 (0 no effect, 100 complete control)
[27] = Postemergence, 16 g ai/ha, scale 0 to 100 (0 no effect, 100 complete control)
[28] = Preemergence, 16 g ai/ha, scale 0 to 100, 0 is no effect, 100 is complete control
[29] = Postemergence, 125 g ai/ha, visual rating after approx. 10 d, 0 to 100 scale (0 no effect, 100 complete control)
[30] = Preemergence, 500 g ai/ha, 0 to 100 scale, 0 no effect, 100 complete control

Structure (SMILES): CC(=O)Oc1c(Cl)nn(C)c(=O)c1-c1c(C)sc2ccc(Cl)cc12 [Compound 116]
- Plant response rating, Ragweed [1, 9]: 85
- Plant response rating, Ragweed [1, 10]: 90
- Plant response rating, Ragweed [1, 11]: 95
- Ragweed plant response rating [1, 12]: 100
- Plant response rating, Oilseed Rape [2, 9]: 85
- Plant response rating, Oilseed Rape [2, 10]: 80
- Plant response rating, Oilseed Rape [2, 11]: 95
- Oilseed Rape plant response rating [2, 12]: 100
- Plant response rating, Johnsongrass [3, 9]: 0
- Plant response rating, Johnsongrass [3, 10]: 0
- Plant response rating, Johnsongrass [3, 11]: 0
- Johnsongrass plant response rating [3, 12]: 10
- Plant response rating, Foxtail, Giant [4, 13]: 70
- Plant response rating, Foxtail, Giant [4, 14]: 100
- Foxtail, Giant plant response rating [4, 15]: 80
- Plant response rating, Foxtail, Giant [4, 16]: 100
- Plant response rating, Ragweed [5, 13]: 70
- Plant response rating, Ragweed [5, 14]: 100
- Ragweed plant response rating [5, 15]: 90
- Plant response rating, Ragweed [5, 16]: 90
- Plant response rating, Ryegrass, Italian [6, 13]: 90
- Plant response rating, Ryegrass, Italian [6, 14]: 100
- Ryegrass, Italian plant response rating [6, 15]: 80
- Plant response rating, Ryegrass, Italian [6, 16]: 100
- Plant response rating, Kochia (kochia (Kochia scoparia); [13]): 30
- Plant response rating, Kochia (kochia (Kochia scoparia); [14]): 60
- Kochia plant response rating (kochia (Kochia scoparia); [15]): 30
- Plant response rating, Kochia (kochia (Kochia scoparia); [16]): 100
- Plant response rating, Wheat [7, 17]: 20
- Plant response rating, Wheat [7, 18]: 50
- Plant response rating, Pigweed [8, 13]: 70
- Plant response rating, Pigweed [8, 14]: 100
- Pigweed plant response rating [8, 15]: 90
- Plant response rating, Pigweed [8, 16]: 90
- Plant response rating, Corn (corn (Zea mays); [17]): 0
- Plant response rating, Corn (corn (Zea mays); [18]): 30

Structure (SMILES): Cc1nn(C)c(=O)c(-c2cccc3ccc(Br)cc23)c1O [Compound 126]
- Plant response rating, Ragweed [1, 19]: 85
- Ragweed plant response rating [1, 20]: 90
- Plant response rating, Ragweed [1, 21]: 95
- Plant response rating, Ragweed [1, 22]: 95
- Plant response rating, Oilseed Rape [2, 19]: 60
- Oilseed Rape plant response rating [2, 20]: 80
- Plant response rating, Oilseed Rape [2, 21]: 60
- Plant response rating, Oilseed Rape [2, 22]: 85
- Plant response rating, Johnsongrass [3, 19]: 10
- Johnsongrass plant response rating [3, 20]: 10
- Plant response rating, Johnsongrass [3, 21]: 15
- Plant response rating, Johnsongrass [3, 22]: 25
- Plant response rating, Foxtail, Giant [4, 13]: 20
- Plant response rating, Foxtail, Giant [4, 14]: 60
- Foxtail, Giant plant response rating [4, 15]: 10
- Plant response rating, Foxtail, Giant [4, 16]: 70
- Plant response rating, Ragweed [5, 13]: 90
- Plant response rating, Ragweed [5, 14]: 90
- Ragweed plant response rating [5, 15]: 70
- Plant response rating, Ragweed [5, 16]: 80
- Plant response rating, Ryegrass, Italian [6, 13]: 90
- Plant response rating, Ryegrass, Italian [6, 14]: 100
- Ryegrass, Italian plant response rating [6, 15]: 90
- Plant response rating, Ryegrass, Italian [6, 16]: 100
- Plant response rating, Kochia (kochia (Kochia scoparia); [13]): 90
- Plant response rating, Kochia (kochia (Kochia scoparia); [14]): 90
- Kochia plant response rating (kochia (Kochia scoparia); [15]): 50
- Plant response rating, Kochia (kochia (Kochia scoparia); [16]): 90
- Plant response rating, Wheat [7, 17]: 0
- Plant response rating, Wheat [7, 18]: 20
- Plant response rating, Pigweed [8, 13]: 90
- Plant response rating, Pigweed [8, 14]: 100
- Pigweed plant response rating [8, 15]: 100
- Plant response rating, Pigweed [8, 16]: 100
- Plant response rating, Corn (corn (Zea mays); [17]): 0
- Plant response rating, Corn (corn (Zea mays); [18]): 20

Structure (SMILES): Cc1ccc2ccccc2c1-c1c(OC(=O)OC(C)C)c(C)nn(C)c1=O [Compound 72]
- Ragweed plant response rating [1, 23]: 80
- Plant response rating, Ragweed [1, 21]: 95
- Plant response rating, Ragweed [1, 22]: 90
- Plant response rating, Ragweed [1, 9]: 85
- Plant response rating, Ragweed [1, 10]: 90
- Plant response rating, Ragweed [1, 11]: 100
- Ragweed plant response rating [1, 12]: 95
- Ragweed plant response rating [1, 24]: 90
- Oilseed Rape plant response rating [2, 23]: 40
- Plant response rating, Oilseed Rape [2, 21]: 20
- Plant response rating, Oilseed Rape [2, 22]: 85
- Plant response rating, Oilseed Rape [2, 9]: 30
- Plant response rating, Oilseed Rape [2, 10]: 35
- Plant response rating, Oilseed Rape [2, 11]: 80
- Oilseed Rape plant response rating [2, 12]: 80
- Oilseed Rape plant response rating [2, 24]: 35
- Johnsongrass plant response rating [3, 23]: 5
- Plant response rating, Johnsongrass [3, 21]: 5
- Plant response rating, Johnsongrass [3, 22]: 45
- Plant response rating, Johnsongrass [3, 9]: 0
- Plant response rating, Johnsongrass [3, 10]: 25
- Plant response rating, Johnsongrass [3, 11]: 80
- Johnsongrass plant response rating [3, 12]: 85
- Johnsongrass plant response rating [3, 24]: 5
- Plant response rating, Foxtail, Giant [4, 13]: 30
- Foxtail, Giant plant response rating [4, 25]: 90
- Foxtail, Giant plant response rating [4, 15]: 70
- Plant response rating, Foxtail, Giant [4, 16]: 100
- Plant response rating, Ragweed [5, 13]: 70
- Ragweed plant response rating [5, 25]: 90
- Ragweed plant response rating [5, 15]: 90
- Plant response rating, Ragweed [5, 16]: 90
- Plant response rating, Ryegrass, Italian [6, 13]: 100
- Ryegrass, Italian plant response rating [6, 25]: 100
- Ryegrass, Italian plant response rating [6, 15]: 100
- Plant response rating, Ryegrass, Italian [6, 16]: 100
- Plant response rating, Kochia (kochia (Kochia scoparia); [13]): 60
- Kochia plant response rating (kochia (Kochia scoparia); [25]): 90
- Kochia plant response rating (kochia (Kochia scoparia); [15]): 50
- Plant response rating, Kochia (kochia (Kochia scoparia); [16]): 100
- Plant response rating, Wheat [7, 17]: 20
- Wheat plant response rating ([7]; 500 g ai/ha): 70
- Plant response rating, Pigweed [8, 13]: 90
- Pigweed plant response rating [8, 25]: 90
- Pigweed plant response rating [8, 15]: 100
- Plant response rating, Pigweed [8, 16]: 100
- Plant response rating, Corn (corn (Zea mays); [17]): 20
- Corn plant response rating (corn (Zea mays); 500 g ai/ha): 40

Structure (SMILES): Cc1nn(C)c(=O)c(-c2c(C)sc3c(C)cc(Cl)cc23)c1O [Compound 35]
- Plant response rating, Ragweed [1, 26]: 0
- Plant response rating, Ragweed [1, 27]: 0
- Ragweed plant response rating [1, 23]: 25
- Plant response rating, Ragweed [1, 28]: 0
- Plant response rating, Ragweed [1, 9]: 5
- Plant response rating, Ragweed [1, 10]: 40
- Ragweed plant response rating [1, 24]: 40
- Plant response rating, Oilseed Rape [2, 26]: 0
- Plant response rating, Oilseed Rape [2, 27]: 0
- Plant response rating, Oilseed Rape [2, 28]: 5
- Plant response rating, Oilseed Rape [2, 9]: 90
- Plant response rating, Oilseed Rape [2, 10]: 90
- Oilseed Rape plant response rating [2, 24]: 10
- Plant response rating, Johnsongrass [3, 26]: 10
- Plant response rating, Johnsongrass [3, 27]: 15
- Johnsongrass plant response rating [3, 23]: 20
- Plant response rating, Johnsongrass [3, 28]: 0
- Plant response rating, Johnsongrass [3, 9]: 10
- Plant response rating, Johnsongrass [3, 10]: 10
- Johnsongrass plant response rating [3, 24]: 20
- Plant response rating, Foxtail, Giant [4, 29]: 90
- Foxtail, Giant plant response rating [4, 25]: 90
- Foxtail, Giant plant response rating [4, 15]: 90
- Plant response rating, Foxtail, Giant [4, 30]: 100
- Plant response rating, Ragweed [5, 29]: 50
- Ragweed plant response rating [5, 25]: 80
- Ragweed plant response rating [5, 15]: 70
- Plant response rating, Ragweed [5, 30]: 80
- Plant response rating, Ryegrass, Italian [6, 13]: 80
- Ryegrass, Italian plant response rating [6, 25]: 100
- Ryegrass, Italian plant response rating [6, 15]: 90
- Plant response rating, Ryegrass, Italian [6, 30]: 90
- Plant response rating, Kochia (kochia (Kochia scoparia); [29]): 80
- Kochia plant response rating (kochia (Kochia scoparia); [25]): 100
- Kochia plant response rating (kochia (Kochia scoparia); [15]): 40
- Plant response rating, Kochia (kochia (Kochia scoparia); [30]): 70
- Plant response rating, Wheat [7, 17]: 20
- Wheat plant response rating ([7]; 500 g ai/ha): 40
- Plant response rating, Pigweed [8, 29]: 80
- Pigweed plant response rating [8, 25]: 90
- Pigweed plant response rating [8, 15]: 60
- Plant response rating, Pigweed [8, 30]: 90
- Plant response rating, Corn (corn (Zea mays); 125 g ai/ha, visual rating after approx. 10 d, 0 to 100 scale (0 no effect, 100 complete control)): 0
- Corn plant response rating (corn (Zea mays); 500 g ai/ha): 30
